Measurements from ChEMBL document CHEMBL1147194, “Synthesis and evaluation of galactofuranosyl N,N-dialkyl sulfenamides and sulfonamides as antimycobacterial agents” (2007).
≈ marks a conversion by molar mass, not a printed value.

System: Mycolicibacterium smegmatis
Test: Antimycobacterial activity against Mycobacterium smegmatis ATCC 14468 after 72 hrs by broth microdilution assay
Format: functional
Conditions: ATCC 14468, 72 h

An MIC of 64 µg/mL (≈ 156 µM) was found for `CCCCCCN(CCCCCC)S(=O)(=O)[C@@H]1O[C@@H]([C@H](O)CO)[C@H](O)[C@H]1O` in this work.

An MIC of 2 µg/mL (≈ 4.28 µM) was found for `CCCCCCCCN(CCCCCCCC)S(=O)(=O)[C@@H]1O[C@@H]([C@H](O)CO)[C@H](O)[C@H]1O` in this work.

An MIC of 4 µg/mL (≈ 9.18 µM) was found for `CCCCCCCCN(CCCCCCCC)S[C@@H]1O[C@@H]([C@H](O)CO)[C@H](O)[C@H]1O` in this work.

An MIC greater than 32 µg/mL was found for `CCCCCCCCCCN(CCCCCCCCCC)S(=O)(=O)[C@@H]1O[C@@H]([C@H](O)CO)[C@H](O)[C@H]1O` in this work.

An MIC of 1 µg/mL (≈ 2.03 µM) was found for `CCCCCCCCCCN(CCCCCCCCCC)S[C@@H]1O[C@@H]([C@H](O)CO)[C@H](O)[C@H]1O` in this work.

An MIC greater than 64 µg/mL was found for `CCCCCCN(CCCCCC)S[C@@H]1O[C@@H]([C@H](O)CO)[C@H](O)[C@H]1O` in this work.

An MIC of 16 µg/mL (≈ 40.9 µM) was found for `OC[C@@H](O)[C@@H]1O[C@@H](SN(Cc2ccccc2)Cc2ccccc2)[C@H](O)[C@H]1O` in this work.

An MIC greater than 64 µg/mL was found for `O=S(=O)([C@@H]1O[C@@H]([C@H](O)CO)[C@H](O)[C@H]1O)N(Cc1ccccc1)Cc1ccccc1` in this work.
